Experimental data published in US20240317689A1, “POTASSIUM CHANNEL MODULATOR, COMPOSITION AND APPLICATION” (NEUSHEN THERAPEUTICS (SHANGHAI) CO., LTD, priority 2021, published 2024).

Legend:
[1] = tested on: MES-induced epilepsy in mice; test: MES mouse epilepsy model; format: in vivo; conditions: 5 mpk, electrical stimulation 30 minutes after administration
Description: Example 67: MES Mouse Epilepsy Model
• 1. The mice (10 mice per group) were transferred to the operating room to adapt to the environment 30 minutes before the experiment. • 2. The mice were administered the test compounds or positive drug (Valproate) at a specific time point. 30 minutes after the administration of Valproate or 30 minutes after the administration of the test compounds, electrical stimulation was given with ear electrodes. The stimulation parameters were a square wave with a total duration of 0.8 seconds, a frequency of 50 Hz, and an amplitude of 50 mA with an interval of 10 msec. • 3. The number and duration of hind limb tonic extension of the animal within 1 minute after the completion of the electrical stimulation was recorded, and the possible death and time of death were also recorded. • 4. After administration, the possible side effects induced by the drug were observed and recorded, and the side effects are divided into four levels: • None: Normal • Mild sedation • Moderate sedation • Severe sedation

KCNQ2/3 = target: T1, KCNQ2/3 (Homo sapiens, UniProt O43525+O43526); test: Half-maximal activation voltage left shift assay (whole-cell patch clamp, hKCNQ-CHO cells); format: cell-based
T1 construct: expressed in transfected cells; host or cells: CHO cells (hKCNQ-CHO)
Description: Example 65: Half-Maximal Activation Voltage Left Shift Assay
hKCNQ-CHO cells were cultured at 37° C. in a humidified environment of 5% CO2.
• a) Extracellular fluid (mM): NaCl 145, KCl 4, CaCl2 2, MgCl2 1, Glucose 10, HEPES 10. The pH value of the extracellular fluid was adjusted to 7.4 with NaOH, and the osmotic pressure was adjusted to about 295 mOsm. • b) Intracellular fluid (mM): KOH 31.25, KCl 120, EGTA 10, MgCl2 1.75, CaCl2 5.374, HEPES 10, Na-ATP 4. The pH value of the intracellular fluid was adjusted to 7.4 with HCl, and the osmotic pressure was adjusted to about 285 mOsm. • c) The extracellular fluid should be prepared once a week, and the intracellular fluid should be aliquoted and stored at −20° C. after preparation.
The model positive reference compound Retigabine (RTG) was dissolved with 100% DMSO and configured as a 10 mM working solution. The test compounds were dissolved with 100% DMSO and configured as a 10 mM working solution. The final concentration of DMSO in the test solution should be less than 0.3%.
Whole-cell patch clamp was performed at room temperature. The electrical signals recorded with the EPC 10 USB amplifier (HEKA Elektronik, Germany) were filtered by a 3 kHz low-pass filter, and finally recorded in PatchMaster 2×90.5 software (HEKA Elektronik, Germany). At this step, the quality control standard was that the cell high-resistance sealing was greater than 500 MOhms, and the detection current was greater than 0.4 nA.
The recording electrodes were pulled out and polished with a vertical puller (NARISHIGE PC-10, Japan) using a borosilicate glass capillary (GC150tF-10, Harvard Apparatus Co., UK). At this step, the quality control standard was that the electrode resistance was between 2 MΩ and 5 MΩ.
During the recording process of the whole-cell patch clamp, a continuous perfusion system (BT100-2J, LongerPump, China) was used to continuously perfuse the extracellular fluid. The perfusion system was installed on the stage of an upright microscope (FN-S2N, Nikon, Japan), and the perfusion head was manually positioned under the microscope.
The voltage command for detecting the amplitude of hKCNQ current was as follows: the cell was clamped from a potential of −80 mV, stepped to −120 mV, and then clamped continuously at increasing voltages of 10 mV per sweep until +60 mV, held for 1500 ms; and then the clamping voltage was lowered to −120 my and held for 500 ms; finally, the voltage returned to the clamping potential of −80 mV. The detection voltage command was repeated every 15,000 milliseconds, and the command was continuously executed during the compound test. The half-maximal voltage of the cell's hKCNQ was obtained by nonlinear fitting of the current amplitude at different clamping potentials (−120 mV to +60 mV).
Data analysis was performed using PatchMaster 2×90.5 software (HEKA Elektronik, Germany) and Excel 2013 (Microsoft, USA) software. For each cell's patch clamp recording, the half-maximal voltage (V½-test) of hKCNQ corresponding to the test compound concentration should be obtained. The left-shifted half-maximal voltage value ΔV½ (V1/2 Shift (mV)) was obtained by subtracting the half-maximal voltage of hKCNQ before compound action (V½-control) from V½-test.

[2] = target: T2, KCNQ2/3 potassium ion channel (Homo sapiens, UniProt O43525+O43526); test: KCNQ2/3 potassium ion channel activation assay (whole-cell patch clamp, hKCNQ-CHO cells); format: cell-based; conditions: read-out: Enhancment % (current enhancement multiple); for activation at 0.05 µM: test concentration 0.05 μM; for activation at 3 µM: test concentration 3 μM
T2 construct: expressed in transfected cells; host or cells: CHO cells (hKCNQ-CHO)
Procedure, shortened: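 Whole-cell patch clamp at room temperature in hKCNQ-CHO cells, pH 7.4 bath and pipette solutions, DMSO <0.3%. Enhancement = (Itest − Icontrol)/Icontrol.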

[3] = Blood-brain barrier permeability assay in mice (brain concentration after intragastric administration); format: in vivo; conditions: 5 mg/kg, brain tissue homogenate
Description: Administration Dosage of 5 mg/kg
The drug was prepared in proportion (solvent: 5% DMSO+5% Solutol+90% normal saline) to make a solution with a concentration of 0.5 mg/mL, and the mice were subjected to intragastric administration at 0.1 mL/10 g, with 3 mice per group in parallel.
After the mice were administered, the mice were anesthetized and perfused with normal saline through the heart, dissected to collect the brain tissue. The brain tissue was washed with normal saline, dried, weighed, and transferred to a 2 mL EP tube, added with normal saline according to brain tissue: normal saline=1:1 (g/mL). 3 steel balls were put in each tube on a tissue grinder, and the tissue mixture was homogenized at 60 HZ for 60 s, centrifuged at 15000 rpm at 4° C. for 10 minutes, and the supernatant was taken, which was the brain tissue homogenate.
The drug stock solution (0.5 mg/mL) was taken and diluted with acetonitrile to form standard curve working solutions with concentrations of 50, 100, 200, 500, 1000, 2000, 5000, 10000, and 20000 ng/mL, and quality control working solutions with concentrations of 100, 2000, and 10000 ng/mL. 47.5 μL of blank matrix was taken respectively, and 2.5 μL of standard curve working solution and 2.5 μL of quality control working solution were added thereto to prepare standard curve samples with concentrations of 2.5, 5, 10, 25, 50, 100, 250, 500, and 1000 ng/mL and quality control samples with concentrations of 5, 100, and 500 ng/mL. 200 μL of acetonitrile (containing the internal standard of 5 ng/mL of Loratadine) was added thereto respectively, subjected to vortex oscillation for 3 minutes, centrifuged at 15,000 rpm and 4° C. for 10 minutes, and the supernatant was taken and analyzed by LC-MS/MS to obtain a standard curve.
50 μL of brain tissue homogenate sample was taken, added with 200 μL of acetonitrile (containing the internal standard of 5 ng/mL of Loratadine), subjected to vortex oscillation for 3 minutes, centrifuged at 15,000 rpm and 4° C. for 10 minutes, and the supernatant was taken for LC-MS/MS analysis. The standard curve was combined with the analysis to obtain the corresponding concentrations in the brain.

Structure (SMILES)	V1/2 Shift (mV) (KCNQ2/3; test concentration 50 nM)	V1/2 Shift (mV) (KCNQ2/3; test concentration 300 nM)	activation at 0.05 µM [2] [%]	activation at 3 µM [2] [%]	Concentrations in the brain [3] [ng/g]	Protection rate for tonic extension [1] [%]
Cc1cc(N2CCCc3cc(OC4CCCC4)ccc3C2)cc(C)c1NC(=O)CC(C)(C)C [Compound 011, N-(4-(7-(cyclopentyloxy)-1,3,4,5-tetrahydro-2H-benzo[c]azepin-2-yl)-2,6-dimethylphenyl)-3,3-dimethylbutanamide]	−2.92	−21.98	> 100	> 100	–	90
Cc1cc(N2CCCc3cc(OC(C)C(F)(F)F)ccc3C2)cc(C)c1NC(=O)CC(C)(C)C (stereo not shown) [Compound 008, N-(2,6-dimethyl-4-(7-((1,1,1-trifluoropropan-2-yl)oxy)-1,3,4,5-tetrahydro-2H-benzo[c]azepin-2-yl)phenyl)-3,3-dimethylbutanamide]	−23.38	−47.60	50 to 100	> 100	166.1	90
Cc1cc(N2CCCc3cc(OC(C)C)ccc3C2)cc(C)c1NC(=O)CC(C)(C)C [Compound 003, N-(4-(7-isopropoxy-1,3,4,5-tetrahydro-2H-benzo[c]azepin-2-yl)-2,6-dimethylphenyl)-3,3-dimethylbutanamide]	−7.00	−36.06	< 50	50 to 100	127.5	100
Cc1cc(N2CCc3cc(F)ccc3C2)cc(C)c1NC(=O)CC(C)(C)C [Xen-1101, reference compound]	−5.48	−13.33	–	–	90.9	–

Second part, led by results:

V1/2 Shift (mV) (KCNQ2/3; test concentration 50 nM)	V1/2 Shift (mV) (KCNQ2/3; test concentration 300 nM)	activation at 0.05 µM [2] [%]	activation at 3 µM [2] [%]	Concentrations in the brain [3] [ng/g]	Structure (SMILES)	Protection rate for tonic extension [1] [%]
−16.46	–	50 to 100	> 100	257	Cc1cc(N2CCCc3cc(OC(C)C)c(F)cc3C2)cc(C)c1NC(=O)CC(C)(C)C [Compound 035, N-(4-(8-fluoro-7-isopropoxy-1,3,4,5-tetrahydro-2H-benzo[c]azepin-2-yl)-2,6-dimethylphenyl)-3,3-dimethylbutanamide]	100
−44.25	–	–	50 to 100	–	Cc1cc(N2CCCc3cc(O[C@@H](C)C(F)(F)F)ccc3C2)cc(C)c1NC(=O)CC(C)(C)C [Compound 033, (S)—N-(2,6-dimethyl-4-(7-((1,1,1-trifluoropropan-2-yl)oxy)-1,3,4,5-tetrahydro-2H-benzo[c]azepin-2-yl)phenyl)-3,3-dimethylbutanamide]	100
